Read-outs that look alike come from different tables or passages of the source.
What was measured:
MV4;11 cells = assay: Cell viability assay (CellTiter-Glo) in MV4;11 cells, alone or with gilteritinib; format: cell-based; conditions: Homo sapiens, MV4;11 cells, three days, CellTiter-Glo, read-out: MV4
MOLM-13 cells = assay: Cell viability assay (CellTiter-Glo) in MOLM-13 cells, alone or with gilteritinib; format: cell-based; conditions: Homo sapiens, MOLM-13 cells, three days, CellTiter-Glo
[1] = MV4-11, 72 h, compound alone (without gilteritinib), 11 IC50
[2] = MV4-11, 72 h, with gilteritinib 10 nM, 11 IC50 gilteritinib
[3] = MOLM-13, 72 h, compound alone (without gilteritinib), read-out: MOLM-13 IC50
[4] = MOLM-13, 72 h, with gilteritinib 20 nM, read-out: MOLM-13 IC50 gilteritinib
[5] = 72 h, compound alone (without gilteritinib), 11 IC50
[6] = 72 h, compound with gilteritinib 10 nM, 11 IC50 gilteritinib
[7] = 72 h, compound alone (without gilteritinib), read-out: MOLM-13 IC50
[8] = 72 h, compound with gilteritinib 20 nM, read-out: MOLM-13 IC50 gilteritinib
[9] = MV4-11, 72 h, compound with gilteritinib 10 nM, 11 IC50 gilteritinib
[10] = MOLM-13, 72 h, compound with gilteritinib 20 nM, read-out: MOLM-13 IC50 gilteritinib

Row | Compound | IC50 (MV4;11 cells; [1]) | IC50 (MV4;11 cells; [2]) | IC50 (MOLM-13 cells; [3]) | IC50 (MOLM-13 cells; [4]) | also measured
1 | O=C1CCC(N2C(=O)c3ccc(NC[C@H]4C[C@H](n5cc(-c6ccncn6)c(C6CC6)n5)C4)cc3C2=O)C(=O)N1 (stereo partly drawn) [GS-601, 5-(((trans-3-(3-Cyclopropyl-4-(pyrimidin-4-yl)-1H-pyrazol-1-yl)cyclobutyl)methyl)amino)-2-(2,6-dioxopiperidin-3-yl)isoindoline-1,3-dione] |  |  |  |  | IC50 (MV4;11 cells; [5]): 10 to 100 nM; IC50 (MV4;11 cells; [6]): > 1000 nM; IC50 (MOLM-13 cells; [7]): > 1000 nM; IC50 (MOLM-13 cells; [8]): 10 to 100 nM
2 | O=C1CCC(N2C(=O)c3ccc(NCCC[C@H]4C[C@H](n5cc(-c6ncccn6)cn5)C4)cc3C2=O)C(=O)N1 (stereo partly drawn) [GS-242, 2-(2,6-Dioxopiperidin-3-yl)-5-((3-(trans-3-(4-(pyrimidin-2-yl)-1H-pyrazol-1-yl)cyclobutyl)propyl)amino)isoindoline-1,3-dione] | > 1000 nM | 100 to 1000 nM | > 1000 nM | 100 to 1000 nM | 
3 | O=C1CCC(N2Cc3c(OCc4ccc(CN5CCC(n6cc(-c7cnc8ccccc8n7)cn6)CC5)cc4)cccc3C2=O)C(=O)N1 (centres unmarked) [GS-108, 3-(1-Oxo-4-((4-((4-(4-(quinoxalin-2-yl)-1H-pyrazol-1-yl)piperidin-1-yl)methyl)benzyl)oxy)isoindolin-2-yl)piperidine-2,6-dione] | > 1000 nM | 100 to 1000 nM | > 1000 nM | 10 to 100 nM | 
4 | O=C1CCC(N2C(=O)c3ccc(NCCNc4cccc(N5CCC(n6cc(-c7cnc8cccc(Br)c8n7)cn6)CC5)c4)cc3C2=O)C(=O)N1 (centres unmarked) [GS-362, 5-((2-((3-(4-(4-(8-Bromoquinoxalin-2-yl)-1H-pyrazol-1-yl)piperidin-1-yl)phenyl)amino)ethyl)amino)-2-(2,6-dioxopiperidin-3-yl)isoindoline-1,3-dione] |  |  |  |  | IC50 (MV4;11 cells; [5]): < 10 nM; IC50 (MV4;11 cells; 72 h, with gilteritinib 10 nM, 11 IC50 gilteritinib): < 10 nM; IC50 (MOLM-13 cells; [7]): < 10 nM; IC50 (MOLM-13 cells; 72 h, with gilteritinib 20 nM, read-out: MOLM-13 IC50 gilteritinib): < 10 nM
5 | O=C1CCC(N2Cc3cc(OCCCCC(=O)N4CCC(n5cc(-c6cnc7ccccc7n6)cn5)CC4)ccc3C2=O)C(=O)N1 (centres unmarked) [GS-484, 3-(1-oxo-5-((5-oxo-5-(4-(4-(quinoxalin-2-yl)-1H-pyrazol-1-yl)piperidin-1-yl)pentyl)oxy)isoindolin-2-yl)piperidine-2,6-dione] | > 1000 nM |  | 100 to 1000 nM |  | IC50 (MV4;11 cells; [9]): 100 to 1000 nM; IC50 (MOLM-13 cells; [10]): 100 to 1000 nM
6 | O=C1CCC(N2C(=O)c3ccc(NC[C@H]4C[C@H](n5cc(N6CCC(O)CC6)c(C6CC6)n5)C4)cc3C2=O)C(=O)N1 (stereo partly drawn) [GS-452, 5-(((trans-3-(3-cyclopropyl-4-(4-hydroxypiperidin-1-yl)-1H-pyrazol-1-yl)cyclobutyl)methyl)amino)-2-(2,6-dioxopiperidin-3-yl)isoindoline-1,3-dione] | > 1000 nM |  | > 1000 nM |  | IC50 (MV4;11 cells; [9]): > 1000 nM; IC50 (MOLM-13 cells; [10]): > 1000 nM
7 | O=C(CC1CC(N2CCC(n3cc(-c4cnc5ccccc5n4)cn3)CC2)C1)NCc1ccc2c(c1)CN(C1CCC(=O)NC1=O)C2=O (centres unmarked) [GS-082, N-((2-(2,6-Dioxopiperidin-3-yl)-1-oxoisoindolin-5-yl)methyl)-2-(3-(4-(4-(quinoxalin-2-yl)-1H-pyrazol-1-yl)piperidin-1-yl)cyclobutyl)acetamide] | > 1000 nM | 100 to 1000 nM | > 1000 nM | 100 to 1000 nM | 
8 | O=C1CCC(N2C(=O)c3ccc(NCCC[C@H]4C[C@H](n5cc(-c6cnc7ccc(N8CC9CCC(C8)N9)cc7n6)cn5)C4)cc3C2=O)C(=O)N1 (stereo partly drawn) [GS-215, 5-((3-(trans-3-(4-(7-(3,8-Diazabicyclo[3.2.1]octan-3-yl)quinoxalin-2-yl)-1H-pyrazol-1-yl)cyclobutyl)propyl)amino)-2-(2,6-dioxopiperidin-3-yl)isoindoline-1,3-dione] | 100 to 1000 nM | 10 to 100 nM | 100 to 1000 nM | < 10 nM | 
9 | O=C1CCC(N2C(=O)c3ccc(NC[C@H]4C[C@H](n5cc(-c6ccccc6)c(C6CC6)n5)C4)cc3C2=O)C(=O)N1 (stereo partly drawn) [GS-598, 5-(((trans-3-(3-Cyclopropyl-4-phenyl-1H-pyrazol-1-yl)cyclobutyl)methyl)amino)-2-(2,6-dioxopiperidin-3-yl)isoindoline-1,3-dione] |  |  |  |  | IC50 (MV4;11 cells; [5]): 10 to 100 nM; IC50 (MV4;11 cells; [6]): < 10 nM; IC50 (MOLM-13 cells; [7]): 100 to 1000 nM; IC50 (MOLM-13 cells; [8]): 10 to 100 nM

Further lines, with some results ahead:

Row | IC50 (MV4;11 cells; [1]) | IC50 (MV4;11 cells; [2]) | IC50 (MOLM-13 cells; [3]) | IC50 (MOLM-13 cells; [4]) | Compound | also measured
10 | 10 to 100 nM | < 10 nM | 10 to 100 nM | < 10 nM | O=C1CCC(N2C(=O)c3ccc(NCCC[C@H]4C[C@H](n5cc(-c6cnc7cc(N8CCOCC8)ccc7n6)cn5)C4)cc3C2=O)C(=O)N1 (stereo partly drawn) [GS-396, 2-(2,6-Dioxopiperidin-3-yl)-5-((3-(trans-3-(4-(6-morpholinoquinoxalin-2-yl)-1H-pyrazol-1-yl)cyclobutyl)propyl)amino)isoindoline-1,3-dione] | 
11 | 10 to 100 nM | < 10 nM | 10 to 100 nM | < 10 nM | Cc1nc(-c2cn([C@H]3C[C@H](CNc4ccc5c(c4)C(=O)N(C4CCC(=O)NC4=O)C5=O)C3)nc2C2CC2)ccc1F (stereo partly drawn) [GS-305, 5-(((trans-3-(3-Cyclopropyl-4-(5-fluoro-6-methylpyridin-2-yl)-1H-pyrazol-1-yl)cyclobutyl)methyl)amino)-2-(2,6-dioxopiperidin-3-yl)isoindoline-1,3-dione] | 
12 | 100 to 1000 nM |  | 100 to 1000 nM |  | CN1CCN(c2cccc(-c3cn([C@H]4C[C@H](CNc5ccc6c(c5)C(=O)N(C5CCC(=O)NC5=O)C6=O)C4)nc3C3CC3)n2)CC1 (stereo partly drawn) [GS-440, 5-(((trans-3-(3-cyclopropyl-4-(6-(4-methylpiperazin-1-yl)pyridin-2-yl)-1H-pyrazol-1-yl)cyclobutyl)methyl)amino)-2-(2,6-dioxopiperidin-3-yl)isoindoline-1,3-dione] | IC50 (MV4;11 cells; [9]): 100 to 1000 nM; IC50 (MOLM-13 cells; [10]): 100 to 1000 nM
13 | 100 to 1000 nM | 100 to 1000 nM | > 1000 nM | 100 to 1000 nM | O=C1CCC(N2C(=O)c3ccc(CCCCCCCn4cc(-c5cnc6ccccc6n5)cn4)cc3C2=O)C(=O)N1 (centres unmarked) [GS-352, 2-(2,6-Dioxopiperidin-3-yl)-5-(7-(4-(quinoxalin-2-yl)-1H-pyrazol-1-yl)heptyl)isoindoline-1,3-dione] | 
14 | > 1000 nM | > 1000 nM | > 1000 nM | > 1000 nM | O=C1CCC(N2Cc3c(NC4CCCC(CCCCn5cc(-c6cnc7ccccc7n6)cn5)C4)cccc3C2=O)C(=O)N1 (centres unmarked) [GS-142, 3-(1-Oxo-4-((3-(4-(4-(quinoxalin-2-yl)-1H-pyrazol-1-yl)butyl)cyclohexyl)amino)isoindolin-2-yl)piperidine-2,6-dione] | 
15 | < 10 nM | < 10 nM | < 10 nM | < 10 nM | O=C(Cc1ccc(N2CCC(n3cc(-c4cnc5ccccc5n4)cn3)CC2)cc1)NCc1ccc2c(c1)CN(C1CCC(=O)NC1=O)C2=O (centres unmarked) [GS-122, N-((2-(2,6-dioxopiperidin-3-yl)-1-oxoisoindolin-5-yl)methyl)-2-(4-(4-(4-(quinoxalin-2-yl)-1H-pyrazol-1-yl)piperidin-1-yl)phenyl)acetamide] | 
16 | < 10 nM |  | < 10 nM |  | O=C1CCC(N2C(=O)c3ccc(NC[C@H]4C[C@H](n5cc(-c6cnc7ccc(N8CCOCC8)cc7n6)c(C6CC6)n5)C4)cc3C2=O)C(=O)N1 (stereo partly drawn) [GS-464, 5-(((trans-3-(3-cyclopropyl-4-(7-morpholinoquinoxalin-2-yl)-1H-pyrazol-1-yl)cyclobutyl)methyl)amino)-2-(2,6-dioxopiperidin-3-yl)isoindoline-1,3-dione] | IC50 (MV4;11 cells; [9]): < 10 nM; IC50 (MOLM-13 cells; [10]): < 10 nM
17 | < 10 nM | < 10 nM | < 10 nM | < 10 nM | O=C1CCC(N2C(=O)c3ccc(NC[C@H]4C[C@H](n5cc(-c6nccc7cnccc67)c(C6CC6)n5)C4)cc3C2=O)C(=O)N1 (stereo partly drawn) [GS-280, 5-(((trans-3-(3-Cyclopropyl-4-(2,6-naphthyridin-1-yl)-1H-pyrazol-1-yl)cyclobutyl)methyl)amino)-2-(2,6-dioxopiperidin-3-yl)isoindoline-1,3-dione] | 
18 | 100 to 1000 nM | 10 to 100 nM | > 1000 nM | 10 to 100 nM | O=C1CCC(N2Cc3ccc(CCCCC(=O)N4CCC(n5cc(-c6ccc7ccccc7n6)cn5)CC4)cc3C2=O)C(=O)N1 (centres unmarked) [GS-160, 3-(1-Oxo-6-(5-oxo-5-(4-(4-(quinolin-2-yl)-1H-pyrazol-1-yl)piperidin-1-yl)pentyl)isoindolin-2-yl)piperidine-2,6-dione] | 
19 | 100 to 1000 nM | 10 to 100 nM | > 1000 nM | 10 to 100 nM | O=C1CCC(N2C(=O)c3ccc(NCCCC4CC(n5cc(-c6cnc7ccccc7n6)cn5)C4)cc3C2=O)C(=O)N1 (centres unmarked) [GS-107, 2-(2,6-Dioxopiperidin-3-yl)-5-((3-(3-(4-(quinoxalin-2-yl)-1H-pyrazol-1-yl)cyclobutyl)propyl)amino)isoindoline-1,3-dione] | 
20 | 100 to 1000 nM |  | > 1000 nM |  | O=C1CCC(N2C(=O)c3ccc(NCCCCCCn4cc(-c5nc6ccccc6nc5C(F)(F)F)cn4)cc3C2=O)C(=O)N1 (centres unmarked) [GS-522, 2-(2,6-Dioxopiperidin-3-yl)-5-((6-(4-(3-(trifluoromethyl)quinoxalin-2-yl)-1H-pyrazol-1-yl)hexyl)amino)isoindoline-1,3-dione] | IC50 (MV4;11 cells; [9]): 10 to 100 nM; IC50 (MOLM-13 cells; [10]): < 10 nM
